{"source": "paper PMC5021161", "about": "(Environmental and Molecular Mutagenesis, 2016)", "key": {"[1]": {"test_system": "ATF3", "type": "cell-based, human", "conditions": "4 hr + 3-4 hr recovery"}, "[2]": {"test_system": "CDKN1A", "type": "cell-based, human", "conditions": "4 hr + 3-4 hr recovery"}, "[3]": {"test_system": "GADD45A", "type": "cell-based, human", "conditions": "4 hr + 3-4 hr recovery"}, "[4]": {"test_system": "ATF3, CDKN1A, and GADD45A", "assay": "RT‐qPCR of the three stress response genes", "type": "cell-based, human", "conditions": "2% Aroclor‐induced S9"}, "[5]": {"test_system": "TK6 cells", "conditions": "for % Relative Survival: 4 hr + 20 hr recovery"}, "[6]": {"test_system": "TK6 cells", "conditions": "4 hr + 20 hr recovery"}, "[7]": {"test_system": "TK6 cells", "conditions": "for % MN: 4 hr + 20 hr recovery; for statistically significant % MN increase relative to controls: for at least one concentration, definitive study"}, "[8]": {"test_system": "TGx‐28.65 biomarker genes", "conditions": "for Dendogram TGx‐28.65 / NSC TGx‐28.65 / PCA TGx‐28.65: 4 hr + 3-4 hr recovery"}, "[9]": {"test_system": "bacteria", "conditions": "ref NTP, 1993; cited from earlier work"}, "[10]": {"test_system": "mammalian cells", "conditions": "Chinese hamster ovary cells; ref NTP, 1993; cited from earlier work"}, "[11]": {"conditions": "B6C3F1 mouse bone marrow cells; ref NTP, 1993; cited from earlier work"}, "[12]": {"conditions": "2012, cited from earlier work"}, "[13]": {"conditions": "rats and mice; ref NTP, 1993; cited from earlier work"}}, "note": "Where two headings read alike, the source gives them in different places."}
{"smiles": "CN(C)N=O", "note": "[Dimethylnitrosamine]", "values": [{"measurement": "ATF3 fold change vs vehicle control (+S9)", "setting": "[1]; 1 mM, 2% Aroclor S9", "value": 0.8, "unit": "fold change"}, {"measurement": "ATF3 fold change vs vehicle control (+S9)", "setting": "[1]; 5 mM, 2% Aroclor S9", "value": 0.8, "unit": "fold change"}, {"measurement": "ATF3 fold change vs vehicle control (+S9)", "setting": "[1]; 10 mM, 2% Aroclor S9", "value": 0.8, "unit": "fold change"}, {"measurement": "CDKN1A fold change vs vehicle control (+S9)", "setting": "[2]; 1 mM, 2% Aroclor S9", "value": 1.0, "unit": "fold change"}, {"measurement": "CDKN1A fold change vs vehicle control (+S9)", "setting": "[2]; 5 mM, 2% Aroclor S9", "value": 1.3, "unit": "fold change"}, {"measurement": "CDKN1A fold change vs vehicle control (+S9)", "setting": "[2]; 10 mM, 2% Aroclor S9", "value": 1.2, "unit": "fold change"}, {"measurement": "GADD45A fold change vs vehicle control (+S9)", "setting": "[3]; 1 mM, 2% Aroclor S9", "value": 1.0, "unit": "fold change"}, {"measurement": "GADD45A fold change vs vehicle control (+S9)", "setting": "[3]; 5 mM, 2% Aroclor S9", "value": 1.2, "unit": "fold change"}, {"measurement": "GADD45A fold change vs vehicle control (+S9)", "setting": "[3]; 10 mM, 2% Aroclor S9", "value": 1.5, "unit": "fold change"}, {"measurement": "induction of genes in the stress response panel", "setting": "[4]", "value": "did not induce any of the genes"}, {"measurement": "change in RS relative to DMSO controls", "setting": "[5]", "value": "declines"}, {"measurement": "% Relative Survival", "setting": "[5]; 1 mM, 2% Aroclor S9", "value": 76.40, "unit": "%"}, {"measurement": "% Relative Survival", "setting": "[5]; 5 mM, 2% Aroclor S9", "value": 72.92, "unit": "%"}, {"measurement": "% Relative Survival", "setting": "[5]; 10 mM, 2% Aroclor S9", "value": 45.65, "unit": "%"}, {"measurement": "% Apoptotic cells", "setting": "[6]; 1 mM, 2% Aroclor S9", "value": 8.47, "unit": "%"}, {"measurement": "% Apoptotic cells", "setting": "[6]; 5 mM, 2% Aroclor S9", "value": 12.27, "unit": "%"}, {"measurement": "% Apoptotic cells", "setting": "[6]; 10 mM, 2% Aroclor S9", "value": 30.63, "unit": "%"}, {"measurement": "change in % MN relative to DMSO controls", "setting": "[7]", "value": "Significant increases"}, {"measurement": "% MN", "setting": "[7]; 1 mM, 2% Aroclor S9", "value": 1.15, "unit": "%"}, {"measurement": "% MN", "setting": "[7]; 5 mM, 2% Aroclor S9", "value": 2.29, "unit": "%"}, {"measurement": "% MN", "setting": "[7]; 10 mM, 2% Aroclor S9", "value": 2.80, "unit": "%"}, {"measurement": "statistically significant % MN increase relative to controls", "setting": "[7]", "value": "over twofold"}, {"measurement": "Dendogram TGx‐28.65", "setting": "[8]; 1 mM, 2% Aroclor S9", "value": "−"}, {"measurement": "NSC TGx‐28.65", "setting": "[8]; 1 mM, 2% Aroclor S9", "value": "−"}, {"measurement": "PCA TGx‐28.65", "setting": "[8]; 1 mM, 2% Aroclor S9", "value": "−"}, {"measurement": "Dendogram TGx‐28.65", "setting": "[8]; 5 mM, 2% Aroclor S9", "value": "+"}, {"measurement": "NSC TGx‐28.65", "setting": "[8]; 5 mM, 2% Aroclor S9", "value": "+"}, {"measurement": "PCA TGx‐28.65", "setting": "[8]; 5 mM, 2% Aroclor S9", "value": "+"}, {"measurement": "Dendogram TGx‐28.65", "setting": "[8]; 10 mM, 2% Aroclor S9", "value": "+"}, {"measurement": "NSC TGx‐28.65", "setting": "[8]; 10 mM, 2% Aroclor S9", "value": "+"}, {"measurement": "PCA TGx‐28.65", "setting": "[8]; 10 mM, 2% Aroclor S9", "value": "+"}, {"measurement": "hierarchical cluster analysis with TGx‐28.65", "setting": "[8]; 10% Aroclor‐induced S9, lowest concentration (1 mM)", "value": "on the same branch as non‐genotoxic agents"}, {"measurement": "classification using TGx‐28.65", "setting": "[8]; low concentrations", "value": "non‐genotoxic"}, {"measurement": "classification using TGx‐28.65", "setting": "[8]; mid and high concentrations", "value": "genotoxic"}]}
{"smiles": "c1ccoc1", "note": "[Furan]", "values": [{"measurement": "ATF3 fold change vs vehicle control (+S9)", "setting": "[1]; 2 mM, 5% ethanol S9", "value": 2.3, "unit": "fold change"}, {"measurement": "ATF3 fold change vs vehicle control (+S9)", "setting": "[1]; 3 mM, 5% ethanol S9", "value": 3.1, "unit": "fold change"}, {"measurement": "ATF3 fold change vs vehicle control (+S9)", "setting": "[1]; 5 mM, 5% ethanol S9", "value": 5.4, "unit": "fold change"}, {"measurement": "CDKN1A fold change vs vehicle control (+S9)", "setting": "[2]; 2 mM, 5% ethanol S9", "value": 3.2, "unit": "fold change"}, {"measurement": "CDKN1A fold change vs vehicle control (+S9)", "setting": "[2]; 3 mM, 5% ethanol S9", "value": 5.3, "unit": "fold change"}, {"measurement": "CDKN1A fold change vs vehicle control (+S9)", "setting": "[2]; 5 mM, 5% ethanol S9", "value": 9.8, "unit": "fold change"}, {"measurement": "GADD45A fold change vs vehicle control (+S9)", "setting": "[3]; 2 mM, 5% ethanol S9", "value": 1.4, "unit": "fold change"}, {"measurement": "GADD45A fold change vs vehicle control (+S9)", "setting": "[3]; 3 mM, 5% ethanol S9", "value": 1.4, "unit": "fold change"}, {"measurement": "GADD45A fold change vs vehicle control (+S9)", "setting": "[3]; 5 mM, 5% ethanol S9", "value": 2.4, "unit": "fold change"}, {"measurement": "% Relative Survival", "setting": "[5]; 2 mM, 5% ethanol S9", "value": 80.06, "unit": "%"}, {"measurement": "% Relative Survival", "setting": "[5]; 3 mM, 5% ethanol S9", "value": 64.52, "unit": "%"}, {"measurement": "% Relative Survival", "setting": "[5]; 5 mM, 5% ethanol S9", "value": 48.45, "unit": "%"}, {"measurement": "effect on RS, range finder", "setting": "[5]; 2% Aroclor‐induced S9, data not shown", "value": "did not cause a decline in RS"}, {"measurement": "% Apoptotic cells", "setting": "[6]; 2 mM, 5% ethanol S9", "value": 7.07, "unit": "%"}, {"measurement": "% Apoptotic cells", "setting": "[6]; 3 mM, 5% ethanol S9", "value": 8.40, "unit": "%"}, {"measurement": "% Apoptotic cells", "setting": "[6]; 5 mM, 5% ethanol S9", "value": 15.26, "unit": "%"}, {"measurement": "% MN", "setting": "[7]; 2 mM, 5% ethanol S9", "value": 1.57, "unit": "%"}, {"measurement": "% MN", "setting": "[7]; 3 mM, 5% ethanol S9", "value": 1.77, "unit": "%"}, {"measurement": "% MN", "setting": "[7]; 5 mM, 5% ethanol S9", "value": 2.78, "unit": "%"}, {"measurement": "clastogenicity (analysis of MN)", "setting": "[7]; 5% ethanol‐induced S9", "value": "clastogenic at high concentrations"}, {"measurement": "statistically significant % MN increase relative to controls", "setting": "[7]", "value": "over twofold"}, {"measurement": "Dendogram TGx‐28.65", "setting": "[8]; 2 mM, 5% ethanol S9", "value": "+"}, {"measurement": "NSC TGx‐28.65", "setting": "[8]; 2 mM, 5% ethanol S9", "value": "+"}, {"measurement": "PCA TGx‐28.65", "setting": "[8]; 2 mM, 5% ethanol S9", "value": "+"}, {"measurement": "Dendogram TGx‐28.65", "setting": "[8]; 3 mM, 5% ethanol S9", "value": "+"}, {"measurement": "NSC TGx‐28.65", "setting": "[8]; 3 mM, 5% ethanol S9", "value": "+"}, {"measurement": "PCA TGx‐28.65", "setting": "[8]; 3 mM, 5% ethanol S9", "value": "+"}, {"measurement": "Dendogram TGx‐28.65", "setting": "[8]; 5 mM, 5% ethanol S9", "value": "+"}, {"measurement": "NSC TGx‐28.65", "setting": "[8]; 5 mM, 5% ethanol S9", "value": "+"}, {"measurement": "PCA TGx‐28.65", "setting": "[8]; 5 mM, 5% ethanol S9", "value": "+"}, {"measurement": "Ames test", "setting": "[9]", "value": "negative"}, {"measurement": "chromosomal aberrations", "setting": "[10]", "value": "causes chromosomal aberrations"}, {"measurement": "chromosomal aberrations", "setting": "[11]", "value": "causes chromosomal aberrations"}, {"measurement": "liver DNA strand breaks, comet assay", "setting": "[12]; Big Blue rats, ref McDaniel et al.", "value": "DNA damage at high doses"}, {"measurement": "DNA strand breaks by the comet assay", "setting": "[12]; F344 rats at cancer‐causing doses, ref Ding et al.", "value": "near‐linear dose‐dependent increase in DNA strand breaks"}, {"measurement": "carcinogenicity", "setting": "[13]", "value": "causes liver cancer"}]}
